What was measured:
Experiment in all cases: relative viability (nuclei count vs DMSO), 5 days (fraction); higher = more cells survive
Gemcitabine + Navitoclax = compound: Nc1ccn([C@@H]2O[C@H](CO)[C@@H](O)C2(F)F)c(=O)n1 [Gemcitabine] + CC1(C)CCC(c2ccc(Cl)cc2)=C(CN2CCN(c3ccc(C(=O)NS(=O)(=O)c4ccc(N[C@H](CCN5CCOCC5)CSc5ccccc5)c(S(=O)(=O)C(F)(F)F)c4)cc3)CC2)C1 [Navitoclax] (partner 0.5 µM)
How it was run: (§1)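 Lung cancer cell lines were pin-tool dosed in 1536-well plates on the day after seeding, with either a lone drug or a fixed anchor-drug dose plus five library-drug doses (not always all listed) in √10 steps. Nuclei were counted on 4× images after 5 days. Relative viability is the ratio of treated-well to vehicle-well nuclei counts, with each value a median of duplicate plates.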

Gemcitabine + Crizotinib = compound: Nc1ccn([C@@H]2O[C@H](CO)[C@@H](O)C2(F)F)c(=O)n1 [Gemcitabine] + C[C@@H](Oc1cc(-c2cnn(C3CCNCC3)c2)cnc1N)c1c(Cl)ccc(F)c1Cl [Crizotinib] (partner 1 µM)
How it was run: as §1

Gemcitabine + Tozasertib = compound: Nc1ccn([C@@H]2O[C@H](CO)[C@@H](O)C2(F)F)c(=O)n1 [Gemcitabine] + Cc1cc(Nc2cc(N3CCN(C)CC3)nc(Sc3ccc(NC(=O)C4CC4)cc3)n2)n[nH]1 [Tozasertib] (partner 0.1 µM)
How it was run: as §1

Gemcitabine + Vorinostat = compound: Nc1ccn([C@@H]2O[C@H](CO)[C@@H](O)C2(F)F)c(=O)n1 [Gemcitabine] + O=C(CCCCCCC(=O)Nc1ccccc1)NO [Vorinostat] (partner 1 µM)
How it was run: as §1

Cell Line | relative viability (Gemcitabine + Navitoclax; first compound 0.001 µM) | relative viability (Gemcitabine + Navitoclax; first compound 0.003162 µM) | relative viability (Gemcitabine + Navitoclax; first compound 0.01 µM) | relative viability (Gemcitabine + Navitoclax; first compound 0.03162 µM) | relative viability (Gemcitabine + Navitoclax; first compound 0.1 µM) | relative viability (Gemcitabine + Crizotinib; first compound 0.001 µM) | relative viability (Gemcitabine + Crizotinib; first compound 0.003162 µM) | relative viability (Gemcitabine + Crizotinib; first compound 0.01 µM) | relative viability (Gemcitabine + Crizotinib; first compound 0.03162 µM) | relative viability (Gemcitabine + Crizotinib; first compound 0.1 µM) | relative viability (Gemcitabine + Tozasertib; first compound 0.001 µM) | relative viability (Gemcitabine + Tozasertib; first compound 0.003162 µM) | relative viability (Gemcitabine + Tozasertib; first compound 0.01 µM) | relative viability (Gemcitabine + Tozasertib; first compound 0.03162 µM) | relative viability (Gemcitabine + Tozasertib; first compound 0.1 µM) | relative viability (Gemcitabine + Vorinostat; first compound 0.001 µM) | relative viability (Gemcitabine + Vorinostat; first compound 0.003162 µM) | relative viability (Gemcitabine + Vorinostat; first compound 0.01 µM) | relative viability (Gemcitabine + Vorinostat; first compound 0.03162 µM) | relative viability (Gemcitabine + Vorinostat; first compound 0.1 µM)
NCI-H838 | 1.17 | 1.36 | 1.09 | 0.367 | 0.176 | 0.912 | 0.981 | 0.858 | 0.324 | 0.139 | 0.283 | 0.277 | 0.263 | 0.164 | 0.121 | 0.77 | 0.777 | 0.66 | 0.479 | 0.168
NCI-H596 | 1.06 | 0.949 | 0.506 | 0.23 | 0.171 | 1.04 | 1.02 | 0.531 | 0.391 | 0.345 | 0.922 | 0.589 | 0.391 | 0.306 | 0.223 | 0.657 | 0.497 | 0.272 | 0.251 | 0.2
SK-LU-1 | 0.526 | 0.224 | 0.0818 | 0.117 | 0.118 | 1.02 | 0.364 | 0.258 | 0.208 | 0.252 | 0.303 | 0.207 | 0.131 | 0.145 | 0.14 | 0.753 | 0.339 | 0.267 | 0.251 | 0.252
NCI-H441 | 0.348 | 0.211 | 0.171 | 0.189 | 0.102 | 0.82 | 0.286 | 0.167 | 0.121 | 0.129 | 0.569 | 0.394 | 0.25 | 0.196 | 0.197 | 0.717 | 0.265 | 0.182 | 0.157 | 0.123

— the supplement of paper PMC10307832
